This note sets out measurements from patent EP4667486A1, “COMPOSITION COMPRISING CD38 OR FRAGMENT THEREOF FOR TREATING AUTOIMMUNE DISEASES” (DNT Co., Ltd., priority 2023, dated 2024).

The test system of experiment [1] is ulcerative colitis animal model. The experiment is described as follows: DSS-induced animal model of ulcerative colitis, colon length. Type of experiment: in vivo, C57BL/6 mice. Particulars: for colon length: 20 µg intrarectally daily for 2 weeks, DSS 6-7 days, FIG. 8. On the procedure: A control ulcerative colitis animal model was established by allowing C57BL/6 mice (Damool Science, Korea) to drink drinking water containing 2-3% dextran sulfate sodium (DSS) (MP Biomedicals, China) for 6-7 days. Administration of DSS increases the level of inflammatory cytokines and causes colitis in mice. The experimental animal model was treated with DSS for 6-7 days, and 20 µg of the sCD38 functional domain (M19 peptide (Peptron, Korea)) was injected intrarectally daily for 2 weeks. Then, it was determined whether the progression of ulcerative colitis was reduced. LiCl (Merck, Germany) was used instead of the sCD38 functional domain (M19 peptide) for a positive control group.
In contrast, it was confirmed that the colon length of the experimental animal model treated with the sCD38 functional domain (M19 peptide) was not shortened.

Experiment [2] concerns DCs. The experiment can be described thus: LPS-induced TNF-α secretion from bone marrow-derived dendritic cells (ELISA), sCD38 functional domain screening. Type of experiment: cell-based, mouse. Particulars: DCs from bone marrow cells treated with GM-CSF, FIG. 1-3. As to the method:
To isolate bone marrow cells, mice (Damool Science, Korea) were anesthetized and sacrificed, and the femur and tibia were removed aseptically and the tissue attached to the bones was removed. After cutting off both ends of the bones, bone marrow was collected by slowly injecting 5-10 mL of a cell culture medium or a solution used for bone marrow separation into the medullary cavity at one end using a syringe needle, which was then filtered through a 70 µm cell strainer (SPL Life Sciences, Korea) and centrifuged to collect bone marrow cells. After treating with 1 mL of an RBC lysis solution (Merck, Germany) for 2-5 minutes to remove red blood cells, 10 mL of Dulbecco's phosphate-buffered saline (DPBS) (GIBCO, USA) was added, and bone marrow cells were collected through centrifugation. After washing the bone marrow cells 3 times with DPBS, 10 mL of a BMDC culture medium (RPMI-1640 (Welgene, Korea) containing 10% FBS (GIBCO, USA) and 10 ng/mL GM-CSF (Peprotech, USA)) was added to disperse the bone marrow cells into single cells. 1×10^5 bone marrow cells were dispensed into a 24-well culture dish and differentiated in a 37 °C incubator maintained at 5% CO2.
To screen the functional domain of sCD38 that induces dendritic cell tolerance, the domain of sCD38 was largely divided into three parts (CD38 amino acid sequence; 42-140 (1), 130-220 (2), 210-304 (3)). Using the three parts of sCD38, TNF-α secretion was observed as one of the indicators of the degree of DC tolerance induction.
An E. coli expression system was used to express the sCD38 domain protein. The sCD38 domain protein expressed in E. coli was purified using a purification system and used for screening. For fast and easy screening of the domain protein of sCD38, an ELISA method that measures the pro-inflammatory cytokine TNF-α was adopted. When the DCs obtained by treating the bone marrow cells with GM-CSF are treated with LPS, the DCs differentiate into mature DCs and the secretion of TNF-α is increased. It was confirmed that TNF-α secretion from DCs induced by LPS was reduced by the treatment with sCD38 (SEQ ID NO: 33). As a result of treating with sCD38 functional domain, (1) 42-140, (2) 130-220, and (3) 210-304, it was confirmed that the TNF-α secretion from dendritic cells induced by LPS (Merck, Germany) was reduced by the sCD38 functional domain (3).
After the first screening of the sCE38 functional domain that induces dendritic cell tolerance, the selected domain was divided into two parts (C-term 226-265 and C-term 266-304 of CD38 210-304 (3), (SEQ ID NO: 26)). After the domain was divided into two parts, TNF-α secretion was observed as one of the indicators of the degree of DC tolerance induction.
An E. coli expression system was used to express the divided two parts of sCD38. As a result of treating with the divided two parts (C-term 226-265, C-term 266-304) of the sCD38 functional domain (3), it was confirmed that the TNF-α secretion from dendritic cells induced by LPS was reduced by the sCD38 functional domain C-term 266-304.
After the second screening of the sCE38 functional domains that induce dendritic cell tolerance, the screened domain was divided into seven parts and peptide synthesis was performed (peptide 1: 233-247 of sCD38 226-304, peptide 2: 251-265, peptide 3: 269-283, peptide 4: 266-304 (SEQ ID NO: 26), peptide 5 (M19): 286-304 (SEQ ID NO: 21), peptide 6 (M16): 287-302 (SEQ ID NO: 11), peptide 7 (M14): 287-300 (SEQ ID NO: 4)). […]
In general terms: ELISA stands for enzyme-linked immunosorbent assay.

The test system of experiment [3] is human dendritic cells. The experiment can be described thus: LPS-induced TNF-α secretion from human monocyte-derived dendritic cells. The note with it: FIG. 9. Type of experiment: cell-based. On the procedure: To isolate human monocytes, 20 mL of whole blood was withdrawn and mix with an equal volume of PBS. After adding 15 mL of Ficoll (GE HealthCare, USA) to a 50-mL tube, 15 mL of diluted whole blood was slowly added onto the Ficoll. Likewise, an equal amount of the remaining whole blood was dispensed slowly into a 50-mL tube containing 15 mL of Ficoll. Centrifugation was performed at 1000 x g for 20 minutes in a centrifuge at room temperature. After carefully removing plasma from the isolated whole blood, a portion including peripheral blood mononuclear cells (PBMCs) was transferred to a new 50-mL tube. After adding 10 mL of PBS to the tube containing PBMCs and mixing gently, centrifugation was performed at 400 x g for 10 minutes at room temperature. After carefully removing the supernatant, 1 mL of an RPMI 1640 medium containing 10% FBS was added to the PBMC pellets, and the cells were counted. After adding an RPMI-1640 medium (Welgene, Korea) containing 10% FBS to 1x10^6 cells per mL, 100 ng/mL GM-CSF (Peprotech, USA) and 50 ng/mL IL-4 (Peprotech, USA) were mixed. After adding 500 µL of PMBC to each well of a 24-well plate, the cells were differentiated in an incubator at 37 °C maintained at 5% CO2 for 5 days.
It was confirmed whether the sCD38 functional domain that induces tolerance of dendritic cells is also effective in human dendritic cells. To identify the functional domain of human sCD38, the C-terminal portion of human CD38 (H18 (283-300), H13 (284-296) (SEQ ID NO: 2)) were prepared into peptides. Human sCD38 and M19 peptides were treated as positive controls, and TNF-α secretion was observed using H18 and H13 peptides as one of the indicators of the degree of DC tolerance induction.
It was confirmed that the TNF-α secretion induced by LPS from human dendritic cells was reduced by the sCD38 functional domain peptides when the human sCD38 and M19 peptides were treated as positive controls and they were treated with the H18 and H13 peptides.

The test system of experiment [4] is autoimmune uveitis animal model. The experiment is described as follows: Animal model of autoimmune uveitis (IRBP/PTX-induced), severity. Format: in vivo, C57BL/6 mice. Particulars: injected into the eye twice a week, versus uninjected uveitis control; FIG. 4. As to the method:
Autoimmune uveitis was induced by […] retinoid-binding protein (IRBP) (Peptron, Korea) into the hind limb muscles of C57BL/6 mice (Damool Science, Korea) and intraperitoneal injection of pertussis toxin (PTX) (List Lab, USA). After 10 to 14 days, the presence or absence of autoimmune uveitis was confirmed in the eyes of the mice. The functional domain of sCD38 (226-304) was injected into the eye of the animal model that developed autoimmune uveitis twice a week to determine the progression of autoimmune uveitis. An autoimmune uveitis animal model to which the functional domain of sCD38 (226-304) was not injected was used as a control group, and animals to which the functional domain of sCD38 (226-304) was injected were used as a test group. The severity of autoimmune uveitis was measured for the experimental animals.

Experiment [5] deals with animal model of rheumatoid arthritis. The experiment can be described thus: Collagen-induced arthritis (CIA) animal model of rheumatoid arthritis, hind ankle thickness. Format: in vivo, DBA/1 mice. The note with it: summary statement referring to Example 8. On the procedure: For induction of collagen-induced arthritis (CIA), 8-9 week-old male DBA/1 mice (Central Lab. Animal, Korea) were immunized with bovine type II collagen (CII) (Central Lab. Animal, Korea). CII was dissolved in 0.05 N acetic acid at a concentration of 2 mg/mL and emulsified at a ratio of 1:1 with complete Freund's adjuvant (CFA) (Central Lab. Animal, Korea) at 4 °C. For the first immunization, 150 µL of a mixture of 100 µg CII and 100 µg CFA was injected intradermally into the tail of the mice. Three weeks later, before booster injection, the sCD38 functional domain (sCD38-3) (226-304) or saline was injected into the ankle joint of the mice, and an equal volume of CII, emulsified at a ratio of 1:1 with incomplete Freund's adjuvant (IFA) (Merck, Germany), was injected into the tail (booster injection). The sCD38 functional domain (sCD38-3) was injected three more times, once a week. After 4 weeks of the booster injection, the mice were euthanized for analysis. After the booster injection, the thickness of the hind ankle of the animal model was measured using a vernier caliper.

As for “ARFLQCVKNPEHPSCRLNT (REGION 1..19: note = 19 mer (Mouse)) [M19, synthesized peptide 286-304 of mouse sCD38]”, the colon length result in experiment [1] is recorded as “prevents shortening of the colon”; in experiment [1] (listed as M19 peptide) it was “not shortened”. The “progression of ulcerative colitis” value in experiment [1] (summary statement referring to Example 9) is “reduces”. Also, in experiment [2], the “TNF-α secretion from dendritic cells induced by LPS” value was “reduced”. Further, the “TNF-α secretion induced by LPS from human dendritic cells” value (from here on “TNF-α secretion induced by LPS”) in experiment [3] was “reduced”.
On to “FLQCVKNPEDSSC (REGION 1..13: note = 13 mer (Human or Chimpaanze)) [H13, peptide 284-296 of human CD38]”, for which, in experiment [3], the “TNF-α secretion induced by LPS” value is “reduces”.
As to “KFLQCVKNPEDSSCTSEI (REGION 1..18: note = 18 mer (Human or Chimpaanze)) [H18, domain peptide 283-300 of human CD38]”, the “TNF-α secretion from dendritic cells induced by LPS” value in experiment [2] is given as “reduced”. For the same sequence, in experiment [3], the “TNF-α secretion induced by LPS” value is “reduces”.
Turning to “LKMIVQKRNMIFACVDNYRPARFLQCVKNPEHPSCRLNT (REGION 1..39: note = 39 mer (Mouse)) [peptide 4, synthesized peptide 266-304 of mouse sCD38]”, the “progression of autoimmune uveitis” value in experiment [4] was “reduces”. Besides, the rheumatoid arthritis result in experiment [5] is “reduces”. Besides, the “TNF-α secretion from dendritic cells induced by LPS” value in experiment [2] is reported as “reduced”.
For “RFLQCVKNPEHPSC (REGION 1..14: note = 14 mer (Mouse, Rat or Horse)) [M14, synthesized peptide 287-300 of mouse sCD38]”, the “TNF-α secretion from dendritic cells induced by LPS” value in experiment [2] is “reduces”.
As for “RFLQCVKNPEHPSCRL (REGION 1..16: note = 16 mer (Mouse)) [M16, synthesized peptide 287-302 of mouse sCD38]”, the “TNF-α secretion from dendritic cells induced by LPS” value in experiment [2] was “reduces”.
